Tested on: patients with PD
Assay: MDS-UPDRS / Hoehn & Yahr clinical rating, phase I trial
Assay type: in vivo, human
Method: A single-center, double-blinded, randomized, placebo-controlled phase I trial of oral NR supplementation in newly diagnosed patients with PD was conducted. […] Due to the early onset, this patient underwent genetic investigation with whole-exome sequencing and SNP-chip based genome-wide copy number variation analysis, which excluded pathogenic mutations in PD-related genes, including PINK1 and PRKN. screening. Patient recruitment, inclusion, and follow-up was carried out by a GCP certified investigator. Sample size of 30 participants was chosen based on previously reported brain metabolic network analyses. Thirty PD patients were randomly assigned (Block size 6, allocation 1:1) to 500 mg NR, provided in the form of nicotinamide riboside chloride ([…]® from Chromadex), or placebo twice per day, 12 hours apart, using the electronic Case Report Form (Viedoc.com). The drug containers were sequentially marked by an independent third party. The […]®) and placebo were provided by ChromaDex, USA. Each NR capsule contained 250 mg of NR. Placebo capsules contained microcrystalline cellulose. The vials and capsules containing NR and placebo were identical in shape, colour, and smell. Study drug compliance was calculated from counting returned number of study capsules and self-reporting. Participants, examining physicians, medical- and research personnel were blinded for the duration of the trial. Sample size was determined by comparing previous literature with respect to the primary objective. At screening for trial entry, candidates underwent physical and neurological examination, brain MRI, and […]. Eligible patients who entered the trial were assessed at baseline (visit 1, V1) and after four weeks of exposure to either NR or placebo (visit 2, V2). At both visits, patients underwent physical and neurological examination, including assessment by the Movement Disorder Society Unified Parkinson's Disease Rating Scale section I-IV (MDS-UPDRS), and biological sampling. MR-PET was performed within one week prior to visit 1, and at visit 2. All participants remained naïve for antiparkinson drugs for the duration of the trial. All clinical assessments were performed by a blinded movement disorders expert. Each patient was examined by the same neurologist at both visits. Methodological details on each procedure are provided below. Safety was monitored through routine clinical blood tests and registration of adverse events. Adverse events (AE) were recorded and scored by the investigative physician. […] The AE relation to the study drug was scored as (1) unrelated, (2) unlikely, (3) possible, (4) probable or (5) definitely. The between visit change ([visit 2]-[visit 1]) in MDS-UPDRS (total of subsections I-III; and individual subsections I, II and III) was compared between the NR and placebo groups using independent Student's t-test. In addition, the between visit change in MDS-UPDRS (total and subsections) within the NR, MRS-responder, and placebo groups was assessed by paired Student's t-test. For the 31P-MRS analyses, the change in measured metabolites between visit 1 and visit 2 was assessed in the placebo- and NR group using paired Student's t-test. In addition, the between-visit change in NAD/ATP-α was compared between the NR and placebo group by independent Student's t-test. For PET analyses, changes in network scores with treatment were evaluated for each group separately using paired Student's t-tests or permutation tests. Relationships between network values, NAD levels and MDS-UPDRS motor ratings or between treatment-related changes in these variables were evaluated using Pearson's product-moment correlations; Spearman rank-order correlation coefficients were computed for non-normal distributions of the variables. These statistical tests were performed using SPSS (SPSS Inc., Chicago, IL); results were considered significant for p≤0.05 (two-tailed). […]

[1] = Visit 1 (baseline), MRS Responders N=10
[2] = Visit 1 (baseline), NR group N=15
[3] = Visit 2 (after four weeks), MRS Responders N=10
[4] = Visit 2 (after four weeks), NR group N=15

## NC(=O)c1ccc[n+]([C@@H]2O[C@H](CO)[C@@H](O)[C@H]2O)c1 [NR, nicotinamide riboside]
MRS-responder subgroup (n=10), paired t-test p=0.071
  mean decrease in MDS-UPDRS between visits: 1.9±2.78
NR 1000 mg daily, one month
  clinical change as measured by the UPDRS scale: mild clinical improvement
  motor symptoms in PD patients who received NR: no worsening of motor symptoms
[1]
  Hoehn & Yahr Stage, mean: 1.7
  MDS-UPDRS I, mean score: 6.2
  MDS-UPDRS II, mean score: 6.4
  MDS-UPDRS III, mean score: 29.6
  Total score MDS-UPDRS (I-III), mean: 42.2
[2]
  Hoehn & Yahr Stage, mean: 1.8
  MDS-UPDRS I, mean score: 6.3
  MDS-UPDRS II, mean score: 7.9
  MDS-UPDRS III, mean score: 31.1
  Total score MDS-UPDRS (I-III), mean: 45.2
[3]
  Hoehn & Yahr Stage, mean: 1.8
  MDS-UPDRS I, mean score: 5.3
  MDS-UPDRS II, mean score: 6.4
  MDS-UPDRS III, mean score: 28.7
  Total score MDS-UPDRS (I-III), mean: 40.4
[4]
  Hoehn & Yahr Stage, mean: 1.9
  MDS-UPDRS I, mean score: 5.4
  MDS-UPDRS II, mean score: 8.3
  MDS-UPDRS III, mean score: 30.5
  Total score MDS-UPDRS (I-III), mean: 44.1
Nine individuals with >10% increase in cerebral NAD, paired t-test p=0.017
  mean decrease in MDS-UPDRS between visits: 2.33±2.35

From US20240366648A1, “NAD-AUGMENTATION THERAPY FOR PARKINSON'S DISEASE” (Vestlandets Innovasjonsselskap AS (VIS), priority 2021, published 2024)
